Several values for one entry are separate records, joined by “and”; a condition that tells them apart may be missing. Equal entries are not always repeated. Where two headings read alike, the source gives them in different places.
Legend:
SNU16 cells = assay: Cell viability (CellTiter-Glo); format: cell-based, human; conditions: for 3-day Cell Titer Glo relative signal (Source data Ext Fig 10b): Control SNU16, replicates; for IC50: Homo sapiens
Experimental: Cell viability assay was performed using CellTiter-Glo (Promega, catalgoue no. G8461) as previously described. Briefly, cells were seeded into a 384-well plate one day before adding inhibitors. Equal volumes of vehicles or drugs diluted at indicated concentration were added into each well the next day, and the cells were incubated for three days. On the third day, after equilibrating plate and CellTiter-Glo reagent at room temperature for 30 min, reagent was added into each well and incubated for 15 min at room temperature. Luminescence was measured using a Synergy 2 microplate reader. Four biological replicates were performed for each condition. Data analysis was performed with GraphPad Prism (v.9.1.0). […]

[1] = system: infigratinib-resistant SNU16 cells; assay: 3-day Cell Titer Glo in SNU16 cells after 8 weeks of infigratinib; format: cell-based, human; conditions: for 3-day Cell Titer Glo relative signal (Source data Ext Fig 10b): infi-intermed 8 wk SNU16, replicates
Source text: (§1) Nuclear staining is illustrated using DAPI (blue). […] Scale bar represents 10 µm. (b) Timeline of experimental overview. […] Lane 1 (control) is from a non-contiguous portion of the gel from lanes 2 and 3 (infigratinib treated samples).

SNU16 xenograft tumours = assay: SNU16 xenograft tumour model, tumour volume; format: in vivo, mice; conditions: for tumour volume, individual mice: Infigratinib 15 mg/kg PO QD
Experimental: Animal experiments were performed in accordance with protocols approved by the Charles River Accelerator and Development Lab (CRADL) Institutional Animal Care and Use Committee (protocol no. EB17-010-066). Mice were socially housed in individually ventilated cages on a 12/12 h light/dark cycle with temperatures between 65 and 75 °F and 30–50% humidity. The SNU16 gastric cancer cell line was purchased from ATCC (catalogue no. CRL5974) and maintained in Roswell Park Memorial Institute growth medium (Gibco, catalogue no. 22400-089) supplemented with 10% FBS (Omega Scientific, catalogue no. FB-02). To establish tumours, 1 × 10^6 SNU16 cells in 200 µl of a 1:1 mixture of PBS and Matrigel (Corning, catalogue no. 354234) were given by subcutaneous injection into the right flank of 9-week-old female severe combined immunodeficient beige mice (Envigo, strain code 186). Tumour measurements were taken two to three times per week and body weights were taken daily. Tumour volume measurements were obtained using digital calipers and tumour volumes (mm^3) were determined using the formula: tumour volume = (L × W2)/2, where L is the length/largest tumour diameter and W is the width/shortest tumour diameter, with all tumours collected before reaching 1,500 mm^3. Animals (eight mice per group, which historically allowed for significance determination between vehicle and infigratinib) were randomly assigned to unblinded treatment with vehicle, infigratinib (15 mg kg^−^1 oral (PO) once-daily (QD)), BBI-2779 (30 mg kg^−^1 PO every other day (Q2D)) or the combination of BBI-2779 and infigratinib once average tumour volume was 285 (±10)/mean (±s.e.m.) mm^3. One vehicle tumour was taken down on day 22; the mouse was sacrificed due to large tumour volume. Infigratinib was formulated in a 1:1 mixture of sodium acetate buffer, pH 4.6 and polyethylene glycol 300. BBI-2779 was formulated in 0.5% methylcellulose (Sigma-Aldrich, catalogue no. M0512) and 0.2% Tween 80 (AG Scientific, catalogue no. T-2835) in HyPure Molecular Biology Grade Water (HyClone, catalogue no. SH30538.02). […] Animals were sacrificed 6 h, 24 h or 36 h after the last dose, and tumours were collected for western blot or copy number analysis.

FGFR2 copy number = FGFR2 copy number by qPCR on xenograft tumour DNA; format: in vivo, mice; conditions: infigratinib 15 mg kg-1 PO QD
Experimental: For copy number analysis, tumours were cut into 10–20 mg pieces and flash-frozen in liquid nitrogen. DNA was extracted using the QIAcube DNA Extraction Kit (Qiagen, no. 51331). Briefly, a mixture of buffer ATL and proteinase K was added to the frozen tumour pieces, and they were set out to equilibrate to room temperature. Tumours were then vortexed for 30 s and placed into an incubator at 56 °C to digest overnight. The next morning, an additional 150 μl of buffer ATL was added and samples vortexed for an additional 30 s to reduce the viscosity of the samples before transfer to the S block. Qiagen protocol for the 96 QIAcube HT was followed for the remainder of the DNA isolation. Purified DNA was quantified for the presence of double-stranded DNA on the QIAxpert (Qiagen, catalogue no. 9002340). The DNA was diluted to 5 ng µl^−^1 (5× working stock) in RNase/DNase free water (Thermo Fisher Scientific, catalogue no. 10977015) and 2 µl was loaded into a 384-well plate. […]

[2] = system: FGFR2 copy number in SNU16 cells; assay: qPCR quantification of FGFR2 oncogene number in SNU16 cells; format: cell-based, human; conditions: 8.0 weeks of infigratinib
Source text: as §1

CCN1CCN(c2ccc(Nc3cc(N(C)C(=O)Nc4c(Cl)c(OC)cc(OC)c4Cl)ncn3)cc2)CC1 [infigratinib]
3-day Cell Titer Glo relative signal (Source data Ext Fig 10b) (SNU16 cells; 0.152416 nM infigratinib): 1.0456 and 1.0233
3-day Cell Titer Glo relative signal (Source data Ext Fig 10b) (SNU16 cells; 0.457247 nM infigratinib): 0.9513 and 0.976
3-day Cell Titer Glo relative signal (Source data Ext Fig 10b) (SNU16 cells; 1.37174 nM infigratinib): 0.9221 and 0.9386
3-day Cell Titer Glo relative signal (Source data Ext Fig 10b) (SNU16 cells; 4.11523 nM infigratinib): 0.7516 and 0.791
3-day Cell Titer Glo relative signal (Source data Ext Fig 10b) (SNU16 cells; 12.3457 nM infigratinib): 0.4353 and 0.4209
3-day Cell Titer Glo relative signal (Source data Ext Fig 10b) (SNU16 cells; 37.037 nM infigratinib): 0.1753 and 0.1537
3-day Cell Titer Glo relative signal (Source data Ext Fig 10b) (SNU16 cells; 111.111 nM infigratinib): 0.1409 and 0.1325
3-day Cell Titer Glo relative signal (Source data Ext Fig 10b) (SNU16 cells; 333.333 nM infigratinib): 0.1569 and 0.1376
3-day Cell Titer Glo relative signal (Source data Ext Fig 10b) (SNU16 cells; 1000 nM infigratinib): 0.1554 and 0.1292
IC50 (SNU16 cells; SNU-16, 72 h, control SNU16 cells, 3-day Cell Titer Glo, Extended Data Fig. 10b, read-out: "IC50" control): 7.85 nM
IC50 (SNU16 cells; SNU-16, SNU16 cells, Extended Data Fig. 10, read-out: IC50 (EC50 dose used for 8 weeks of treatment)): 25 nM
IC50 ([1]; Homo sapiens, SNU-16, SNU16 after 8 weeks of infigratinib, 3-day Cell Titer Glo): 30.1 nM
3-day Cell Titer Glo relative signal (Source data Ext Fig 10b) ([1]; 0.152416 nM infigratinib): 0.9851 and 1.028
3-day Cell Titer Glo relative signal (Source data Ext Fig 10b) ([1]; 0.457247 nM infigratinib): 1.032 and 1.122
3-day Cell Titer Glo relative signal (Source data Ext Fig 10b) ([1]; 1.37174 nM infigratinib): 1.185 and 1.134
3-day Cell Titer Glo relative signal (Source data Ext Fig 10b) ([1]; 4.11523 nM infigratinib): 1.087 and 1.319
3-day Cell Titer Glo relative signal (Source data Ext Fig 10b) ([1]; 12.3457 nM infigratinib): 1.111 and 1.106
3-day Cell Titer Glo relative signal (Source data Ext Fig 10b) ([1]; 37.037 nM infigratinib): 0.3322 and 0.3782
3-day Cell Titer Glo relative signal (Source data Ext Fig 10b) ([1]; 111.111 nM infigratinib): 0.158 and 0.1671
3-day Cell Titer Glo relative signal (Source data Ext Fig 10b) ([1]; 333.333 nM infigratinib): 0.14 and 0.158
3-day Cell Titer Glo relative signal (Source data Ext Fig 10b) ([1]; 1000 nM infigratinib): 0.1637 and 0.1685
tumour volume, individual mice (SNU16 xenograft tumours; day of study 1): 275.78 mm^3 and 318.63 mm^3 and 234.6 mm^3 and 333.76 mm^3 and 272.35 mm^3 and 399.19 mm^3 and 215.35 mm^3 and 244.48 mm^3
tumour volume, individual mice (SNU16 xenograft tumours; day of study 5): 207 mm^3 and 207.01 mm^3 and 194.06 mm^3 and 114.59 mm^3 and 223.51 mm^3 and 272.2 mm^3 and 162.32 mm^3 and 141.42 mm^3
tumour volume, individual mice (SNU16 xenograft tumours; day of study 8): 138.07 mm^3 and 126.44 mm^3 and 146.81 mm^3 and 70.82 mm^3 and 180.25 mm^3 and 231.85 mm^3 and 107.33 mm^3 and 100.66 mm^3
tumour volume, individual mice (SNU16 xenograft tumours; day of study 11): 156.25 mm^3 and 176.04 mm^3 and 166.7 mm^3 and 123.46 mm^3 and 218.18 mm^3 and 282.27 mm^3 and 116.93 mm^3 and 111.73 mm^3
tumour volume, individual mice (SNU16 xenograft tumours; day of study 13): 172.17 mm^3 and 176.87 mm^3 and 188.21 mm^3 and 133.63 mm^3 and 270.33 mm^3 and 330.51 mm^3 and 108.35 mm^3 and 124.21 mm^3
tumour volume, individual mice (SNU16 xenograft tumours; day of study 15): 126.09 mm^3 and 205.17 mm^3 and 263.36 mm^3 and 166 mm^3 and 337.92 mm^3 and 367.94 mm^3 and 166.72 mm^3 and 154.6 mm^3
tumour volume, individual mice (SNU16 xenograft tumours; day of study 18): 157.95 mm^3 and 204.33 mm^3 and 255.64 mm^3 and 193.27 mm^3 and 380.93 mm^3 and 448.61 mm^3 and 202.33 mm^3 and 176.11 mm^3
tumour volume, individual mice (SNU16 xenograft tumours; day of study 20): 165.11 mm^3 and 203.59 mm^3 and 221.67 mm^3 and 192.93 mm^3 and 417.82 mm^3 and 479.35 mm^3 and 231.86 mm^3 and 168.05 mm^3
tumour volume, individual mice (SNU16 xenograft tumours; day of study 22): 223.01 mm^3 and 251.01 mm^3 and 223.64 mm^3 and 246.07 mm^3 and 397.26 mm^3 and 479.73 mm^3 and 254.62 mm^3 and 184.76 mm^3
tumour volume, individual mice (SNU16 xenograft tumours; day of study 25): 231.38 mm^3 and 244.62 mm^3 and 333.8 mm^3 and 257.4 mm^3 and 426.98 mm^3 and 499.94 mm^3 and 237.29 mm^3 and 196.21 mm^3
tumour volume, individual mice (SNU16 xenograft tumours; day of study 27): 227.44 mm^3 and 236.39 mm^3 and 325 mm^3 and 271.28 mm^3 and 505.17 mm^3 and 681.55 mm^3 and 273.5 mm^3 and 238.76 mm^3
mean per cent tumour growth inhibition (SNU16 xenograft tumours; infigratinib 15 mg kg^−1 PO QD, day 25, vs vehicle, P < 0.0005): 97%
FGFR2 copy number by qPCR on tumour DNA, individual tumours (FGFR2 copy number): 356.837 and 338.53 and 324.931 and 257.5 and 276.141 and 331.223 and 308.687 and 333.495
FGFR2 CN [2]: 332.123
